We go through two molecules from article PMC11127046, “Three-component systems represent a common pathway for extracytoplasmic addition of pentofuranose sugars into bacterial glycans” (Proceedings of the National Academy of Sciences of the …, 2024).

This assay deals with T1, ORF15 (polyprenyl phosphoribofuranose synthase, PPPRS) (Citrobacter youngae, UniProt A0A2Z4BV67).
T1 construct: gene ubiA; full-length two-domain integral membrane protein (N-terminal PRP/HAD, C-terminal UbiA-type PPPRS); plasmid-expressed, membranes used as enzyme
T1 sequence (A0A2Z4BV67 1-483): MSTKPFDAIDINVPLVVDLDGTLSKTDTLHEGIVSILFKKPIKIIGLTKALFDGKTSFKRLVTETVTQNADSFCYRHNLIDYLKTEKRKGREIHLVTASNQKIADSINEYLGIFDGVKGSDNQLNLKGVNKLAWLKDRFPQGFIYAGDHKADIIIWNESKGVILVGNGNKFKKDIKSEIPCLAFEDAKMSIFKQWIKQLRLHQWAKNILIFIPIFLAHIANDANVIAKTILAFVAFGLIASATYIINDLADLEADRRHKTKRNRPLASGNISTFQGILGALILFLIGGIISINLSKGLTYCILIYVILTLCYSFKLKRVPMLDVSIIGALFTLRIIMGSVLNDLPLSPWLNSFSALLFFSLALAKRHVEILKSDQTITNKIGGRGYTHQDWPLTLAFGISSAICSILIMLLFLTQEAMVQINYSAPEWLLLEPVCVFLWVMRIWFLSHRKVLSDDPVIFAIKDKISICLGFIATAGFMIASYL
The assay can be described thus: TLC, MS and NMR of product formed by membranes. The class given is biochemical. The following applies: […] °C, […] h, expressed membranes.

With `CC(C)=CCC/C(C)=C/CC/C(C)=C/COP(=O)(O)O` [compound 1, farnesyl-phosphate], the “TLC, MS and NMR of product formed by membranes” value ([…] acceptor, […] PRPP, […] MgCl2, […] HEPES pH […]) was “revealing production of a slower migrating species that was dependent on the presence of PRPP”.
For `O=P(O)(O)OC[C@H]1O[C@H](OP(=O)(O)OP(=O)(O)O)[C@H](O)[C@@H]1O` [phosphoribosylpyrophosphate], the “TLC, MS and NMR of product formed by membranes” value ([…] donor, […] farnesylP acceptor, […] MgCl2, pH […]) was “membranes, PRPP donor, and farnesylP acceptor were analyzed by thin layer chromatography (TLC)”.
